Assay results reported in patent publication US20200157144A1, “ANTIMICROBIAL PEPTIDOMIMETICS” (priority 2017, published 2020).
Values after ≈ are worked out from the molar mass of the structure shown. Values joined by “and” are separate entries in the source; they are usually repeats but may differ in a detail not shown here. Identical values can stand only once. Like-named read-outs stand apart in the source and are kept apart here. Square brackets hold non-standard residues; d marks the D form. Peptide text beside a SMILES is read from it. Bip(4'-Cl) = N[C@@H](Cc1ccc(-c2ccc(Cl)cc2)cc1)C(=O)O; dBip(4'-Cl) = N[C@H](Cc1ccc(-c2ccc(Cl)cc2)cc1)C(=O)O

Legend:
Assay in all cases: microbe, parasite or virus in culture
[1] = system: Mupirocin-resistant MRSA ATCC-BAA-1556; assay type: cell-based, Staphylococcus aureus
Protocol: (§1) The MICs of test compounds were determined using the microdilution method from the Clinical and Laboratory Standards Institute (CLSI) guidelines (Clinical and Laboratory Standards Institute. Methods for dilution antimicrobial susceptibility tests for bacteria that grow aerobically; approved standard—ninth edition. Document M07-A9. Vol. 32 No. 2. Wayne, Pa.: CLSI; 2012). Briefly, bacteria were grown fresh from frozen stock in Mueller Hinton 2 (MH2) agar at 37° C. After an overnight incubation, 5 bacteria colonies were selected to grow in cation-adjusted MH2 broth in a shaking incubator (140 RPM) at 37° C. Cells were grown to an optical density (OD600) of 0.15-0.16 determined using a spectrophotometer (Molecular Devices Spectra Max Plus), which corresponds to ˜1×10^8 CFU/mL. Test compounds were constituted into 4 mM DMSO stock solutions and then subjected to 2-fold serial dilution in a 96-well plate with concentrations ranging from 100 to 0.195 μM in duplicates. […] of microbial culture containing ˜1×10^6 CFU/mL of microbes in the respective broths was introduced into each well containing 50 μL of compound solution. After an overnight incubation at 35° C., (220 RPM), OD600 measurements were conducted using the microplate spectrophotometer. The MIC was defined as the lowest antibiotic or compound concentration (μM) required to inhibit bacteria growth.
(§2) The 11th well was used as the growth control well (medium with bacterial inoculums, no antibacterial) while the 12th well was the sterility control well (medium only).

[2] = system: S. aureus (ATCC BAA-1556); details: Staphylococcus aureus, ATCCBAA1556, 24 h, read-out: Mean MIC
Protocol: S. aureus (BAA-1556) was from ATCC. Mupirocin (Cat # M2955) was purchased from TCI chemicals (India) Pvt. […] Ltd, India, Cation adjusted Mueller Hinton broth (CAMHB) and Mueller Hinton Agar (MHA) (Cat # M1657) were from HiMedia Laboratories Pvt. Ltd, India.
The MIC assay was done based on CLSI guidelines in a microtitre plate format (1, 2). Preparation and dilution of Test Item (TI) stock solutions: A 1280 μg/ml stock of Compound 34 was prepared by dissolving 1.28 mg in 1.0 ml of sterile water to obtain the Master Stock (MS) solution. The MS solution was diluted 2-fold to obtain a series of Working Stock (WS) solutions (Table 7). The final concentration of solvent in the assay was 2.5% and the assay volume was […].
Preparing the inoculum: One day before initiation of experiment, an isolated colony of S. aureus (ATCC BAA-1556) was inoculated into sterile CAMHB and incubated at 37° C. to exponential phase. After incubation, the turbidity was adjusted to that of a 0.5 McFarland Standard (approximately equivalent to 1.0×10^8 CFU/ml) and diluted to ˜1.0×10^6 CFU/ml.
MIC Assay: The MIC assay was performed in a 96 well microtitre plate in a total assay volume of 100 μl (Table 7). Each well containing different concentrations of test compound (concentration range between 0.015625 and 16.0 μg/ml) was inoculated with 50 μl of bacterial suspension (prepared from the inoculum grown overnight and adjusted approximately to 5.0×10^5 CFU/ml) along with culture control (CC, culture in broth), broth control (BC, broth only), and vehicle control (VC, 2.5% solvent in broth plus culture). The plate was incubated at 37° C. for 24 hr and turbidity was measured spectrophotometrically (Absorbance microplate reader, BioTek® India, ELx800™) at 600 nm and visually. The experiment was done in duplicates. The inoculum was also plated for enumeration of bacteria. The MIC was defined as the lowest concentration of test compound that prevented bacterial growth (lack of turbidity by OD at 600 nm and visual inspection relative to no growth control).

[3] = system: Mupirocin-susceptible MRSA ATCC-BAA-1681 (USA100); assay type: cell-based, Staphylococcus aureus; details: Staphylococcus aureus
Protocol: as §1, §2

[4] = system: Mupirocin-susceptible MRSA ATCC-BAA-1707 (USA400); assay type: cell-based, Staphylococcus aureus; details: Staphylococcus aureus
Protocol: as §1, §2

[5] = system: Mupirocin-susceptible MRSA ATCC-700699 (VISA); assay type: cell-based, Staphylococcus aureus; details: Staphylococcus aureus
Protocol: as §1, §2

[6] = system: Mupirocin-resistant MRSA ATCC-BAA-1708; assay type: cell-based, Staphylococcus aureus; details: Staphylococcus aureus
Protocol: as §1, §2

[7] = system: Mupirocin-resistant MRSA ATCC-BAA-1750 (USA200); assay type: cell-based, Staphylococcus aureus; details: Staphylococcus aureus
Protocol: as §1, §2

[8] = system: Mupirocin-susceptible MRSA ATCC-BAA-2762 (EMRSA15, ST22); assay type: cell-based, Staphylococcus aureus; details: Staphylococcus aureus
Protocol: as §1, §2

[9] = system: Mupirocin-susceptible MRSA ATCC-BAA-1754 (ST45); assay type: cell-based, Staphylococcus aureus; details: Staphylococcus aureus
Protocol: as §1, §2

[10] = system: Mupirocin-susceptible MRSA ATCC-BAA-1756 (USA300); assay type: cell-based, Staphylococcus aureus; details: Staphylococcus aureus
Protocol: as §1, §2

[11] = system: Mupirocin-susceptible MRSA ATCC-33592 (ST239); assay type: cell-based, Staphylococcus aureus; details: Staphylococcus aureus
Protocol: as §1, §2

**Q.** For `N=C(N)NCCC[C@@H](NC(=O)[C@H](N)Cc1ccc(-c2ccc(Cl)cc2)cc1)C(=O)N[C@H](Cc1ccc(-c2ccc(Cl)cc2)cc1)C(=O)N[C@H](CCCNC(=N)N)C(=O)N[C@H](Cc1ccc(-c2ccc(Cl)cc2)cc1)C(N)=O` [Compound 40] (H-[dBip(4'-Cl)][dR][dBip(4'-Cl)][dR][dBip(4'-Cl)]-NH2), which MIC ([1]; ATCC-BAA-1556, read-out: MIC) is on record?
**A.** >100 µM

**Q.** Which MIC ([1]; ATCC-BAA-1556, read-out: MIC) does the source give for `N=C(N)NCCCCNC(=O)[C@H](Cc1ccc(-c2ccc(Cl)cc2)cc1)NC(=O)[C@H](CCCNC(=N)N)NC(=O)[C@@H](N)Cc1ccc(-c2ccc(Cl)cc2)cc1` [Compound 41] here?
**A.** 6.25 µM (≈ 5.01 µg/mL)

**Q.** `N=C(N)NCCC[C@H](NC(=O)[C@H](Cc1ccc(-c2ccc(Cl)cc2)cc1)NC(=O)[C@H](CCCNC(=N)N)NC(=O)[C@H](N)Cc1ccc(-c2ccc(Cl)cc2)cc1)C(N)=O` [Compound 42] (H-[dBip(4'-Cl)]R[Bip(4'-Cl)]R-NH2) was tested. Which MIC ([1]; ATCC-BAA-1556, read-out: MIC) did it give?
**A.** 6.25 µM (≈ 5.28 µg/mL)

**Q.** `N=C(N)NCCC[C@H](NC(=O)[C@H](Cc1ccc(-c2ccc(Cl)cc2)cc1)NC(=O)[C@@H](CCCNC(=N)N)NC(=O)[C@@H](N)Cc1ccc(-c2ccc(Cl)cc2)cc1)C(N)=O` [Compound 43] (H-[Bip(4'-Cl)][dR][Bip(4'-Cl)]R-NH2) was tested. Which MIC ([1]; ATCC-BAA-1556, read-out: MIC) did it give?
**A.** 6.25 µM (≈ 5.28 µg/mL)

**Q.** `N=C(N)NCCC[C@H](NC(=O)[C@@H](Cc1ccc(-c2ccc(Cl)cc2)cc1)NC(=O)[C@H](CCCNC(=N)N)NC(=O)[C@@H](N)Cc1ccc(-c2ccc(Cl)cc2)cc1)C(N)=O` [Compound 44] (H-[Bip(4'-Cl)]R[dBip(4'-Cl)]R-NH2) was tested. Which MIC ([1]; ATCC-BAA-1556, read-out: MIC) did it give?
**A.** 6.25 µM (≈ 5.28 µg/mL)

**Q.** `N=C(N)NCCC[C@H](NC(=O)[C@@H](N)Cc1ccc(-c2ccc(Cl)cc2)cc1)C(=O)N[C@@H](Cc1ccc(-c2ccc(Cl)cc2)cc1)C(=O)N[C@H](CCCNC(=N)N)C(N)=O` [Compound 45] (H-[Bip(4'-Cl)]R[Bip(4'-Cl)][dR]-NH2) was tested. Which MIC ([1]; ATCC-BAA-1556, read-out: MIC) did it give?
**A.** 6.25 µM (≈ 5.28 µg/mL)

**Q.** What does the source list for `C/C(=C\C(=O)OCCCCCCCCC(=O)O)C[C@@H]1OC[C@H](C[C@@H]2O[C@H]2[C@@H](C)[C@H](C)O)[C@@H](O)[C@H]1O` [Mupirocin]?
**A.** MIC [2]: > 16 µg/mL and > 32 µM; MIC ([3]; Mupirocin-susceptible MRSA ATCC-BAA-1681 (USA100), read-out: MIC): ≤ 0.2 µM; MIC ([4]; Mupirocin-susceptible MRSA ATCC-BAA-1707 (USA400), read-out: MIC): ≤ 0.2 µM; MIC ([5]; Mupirocin-susceptible MRSA ATCC-700699 (VISA), read-out: MIC): ≤ 0.2 µM; MIC ([6]; Mupirocin-resistant MRSA ATCC-BAA-1708, read-out: MIC): > 100 µM; MIC ([1]; Staphylococcus aureus, Mupirocin-resistant MRSA ATCC-BAA-1556, cation-adjusted MH2 broth, overnight 35° C., OD600, read-out: MIC): > 100 µM; MIC ([7]; Mupirocin-resistant MRSA ATCC-BAA-1750 (USA200), read-out: MIC): 25 µM (≈ 12.5 µg/mL); MIC ([8]; Mupirocin-susceptible MRSA ATCC-BAA-2762 (EMRSA15, ST22), read-out: MIC): ≤ 0.2 µM; MIC ([9]; Mupirocin-susceptible MRSA ATCC-BAA-1754 (ST45), read-out: MIC): ≤ 0.2 µM; MIC ([10]; Mupirocin-susceptible MRSA ATCC-BAA-1756 (USA300), read-out: MIC): ≤ 0.2 µM; MIC ([11]; Mupirocin-susceptible MRSA ATCC-33592 (ST239), read-out: MIC): ≤ 0.2 µM

**Q.** Which results are given for `C=C[C@]1(C)C[C@@H](OC(=O)CS[C@@H]2C[C@H]3CC[C@@H](C2)N3C)[C@]2(C)[C@H](C)CC[C@]3(CCC(=O)[C@H]32)[C@@H](C)[C@@H]1O` [Retapamulin]?
**A.** MIC [3]: ≤ 0.2 µM; MIC [4]: ≤ 0.2 µM; MIC [5]: ≤ 0.2 µM; MIC [6]: ≤ 0.2 µM; MIC ([1]; Staphylococcus aureus): ≤ 0.2 µM; MIC [7]: ≤ 0.2 µM; MIC [8]: ≤ 0.2 µM; MIC [9]: ≤ 0.2 µM; MIC [10]: ≤ 0.2 µM; MIC [11]: ≤ 0.2 µM
